Data on one compound can be found in PMC8635125, “A Novel Dibenzoxazepine Attenuates Intracellular Salmonella Typhimurium Oxidative Stress Resistance” (Microbiology Spectrum, 2021).

Series [1] concerns ROS levels in Salmonella-infected RAW264.7 cells. The series is described as follows: Analysis of ROS in macrophages (H2DCFDA). In kind it is cell-based, murine. The conditions noted are these: 1 h; SW14 at concentrations up to 8 μM. How it is done: RAW264.7 macrophages were seeded in 96-well black plates and infected by S. Typhimurium ATCC 14028 at an MOI of 25 for 1 h. After infection, the cells were washed, exposed to 100 mg/L gentamicin for 1 h, washed with warm Krebs-Ringer phosphate buffer (KRP buffer; 120 mM NaCl, 5 mM KCl, 1.7 mM KH2PO4, 8.3 mM Na2HPO4, 10 mM glucose, 1 mM CaCl2, 1.5 mM MgCl2, pH 7.3) and stained with H2DCFDA at 37°C with 5% CO2 for 45 min. The cells were then washed with KRP buffer and treated with SW14 or PMA at the desired concentrations in KRP buffer with 10% FBS. Fluorescence signals at 488/525 nm (excitation/emission) were measured using a SpectraMax M5 Microplate Reader (Molecular Devices).

The subject of the next series is S. Typhimurium NL08.10. The series can be described thus: MIC assay (broth microdilution). The conditions noted are these: Salmonella enterica, TYPHIMURIUM
In kind it is cell-based, Salmonella Typhimurium. How it is done:
(§1) The minimal inhibitory concentration (MIC) of each test compound against the individual bacterial strains was determined by the broth microdilution method following the guidelines recommended by the Clinical and Laboratory Standards Institute (CLSI) ([27]).
Background: In broth dilution the organism is exposed to a series of concentrations in liquid medium.

A further series concerns S. Typhimurium SA10. The series can be described thus: MIC assay (broth microdilution). In kind it is cell-based, Salmonella Typhimurium. The conditions noted are these: Salmonella enterica, TYPHIMURIUM; Table S1(B), SA10. On the procedure:
as §1

Another series deals with S. Typhimurium SB10. The series can be described thus: MIC assay (broth microdilution). In kind it is cell-based, Salmonella Typhimurium. The settings on record: Salmonella enterica, TYPHIMURIUM
How it is done:
as §1

For series [2], the system named is S. Typhimurium ATCC 14028. The series is described as follows: MIC assay (broth microdilution). In kind it is cell-based, Salmonella Typhimurium. On the procedure: as §1
In another series the test system is S. Typhimurium. The series can be described thus: Bacterial growth assay (OD600). In kind it is cell-based, Salmonella enterica serovar Typhimurium. The settings on record: for concentration inhibiting bacterial growth (OD600): 24 h. How it is done: Overnight-grown S. […] The plate was incubated at 37°C, and bacterial growth was monitored by measuring the absorbance at 600 nm with a VersaMax Microplate reader (Molecular Devices) at designated times for 24 h.

Series [3] is described as follows: HCA cytotoxicity toward infected macrophages (nuclear staining). In kind it is cell-based, murine. The conditions noted are these: mouse, RAW264.7 macrophages infected with S. Typhimurium, infected RAW264.7 cells, read-out: 50% cytotoxic concentration (CC50) toward macrophages. How it is done: (§2) Overnight cultures of RFP-expressing S. Typhimurium were prepared for infection by 1:100 dilution in fresh LB broth and incubation for 2 h at 37°C. The bacteria were then collected by centrifugation at 6,000 × g for 3 min and suspended in phosphate-buffered saline (PBS; pH 7.2) to an optical density of 0.6 at 600 nm, which was equivalent to 5 × 10^8 CFU/mL. RAW264.7 macrophages were seeded in 96-well black clear-bottom plates (Greiner) and incubated for 20 h followed by infection with RFP-expressing S. Typhimurium at a multiplicity of infection (MOI) of 50 for 1 h. […] Afterward, the cells were washed and stained with CellTracker Green (Thermo Fisher Scientific) for 30 min in serum-free DMEM followed by fixation in 3.7% formaldehyde (Sigma-Aldrich) for 20 min and stained with 0.2 mg/L DAPI (4′,6-diamidino-2-phenylindole; AAT Bioquest) for 30 min. Images of individual wells were captured and analyzed using a high-content imaging system (ImageXpress Micro 4; Molecular Devices). The CC50 and 50% effective concentration (EC50) values against intracellular bacteria of each compound were determined using CalcuSyn software (Biosoft).

Another series concerns S. Typhimurium 0911R. The series is described as follows: microbe, parasite or virus in culture. In kind it is cell-based, Salmonella Typhimurium. The settings on record: Salmonella enterica, TYPHIMURIUM
On the procedure:
as §1

Series [4] has as its system S. Typhimurium ATCC 14028. The series is described as follows: Efflux pump activity (Hoechst 33342 accumulation assay). The conditions noted are these: data not shown in text; Fig. S2. In kind it is cell-based, Salmonella enterica serovar Typhimurium. On the procedure: Figure S2. The accumulation of Hoechst 33342 in S. Typhimurium ATCC 14028 treated
with escalated concentrations of SW14 for 1 h in the LPM medium was measured using a
fluorescence microplate reader. The data are presented as the mean ± SD (n = 3 per group).
ns: non-significant, P > 0.05; ***P < 0.001; ****P < 0.0001.
Hoechst 33342 accumulation assay
Overnight-grown S. Typhimurium cultured in LB medium was diluted 1:50 in LPM
medium and incubated at 37°C for 3 h. The bacterial suspension was adjusted to an OD600
of 0.1 in fresh LPM medium supplemented with 2.5 µM Hoechst 33342 (Thermo Fisher
Scientific) followed by treatment of mock (DMSO) or SW14 (0.03125 – 8 µM in DMSO)
for 1 h. Bacterial cells which were treated with high temperature (90° C) for 10 min (heat-
killed) rapidly accumulated Hoechst 33342 and served as positive control. Fluorescence
was monitored on a SpectraMax M5 (Molecular devices) with a 355 nm excitation filter
and 460 nm emission filter. The percent inhibition was calculated by the equation: 100 ´
[(SW14-treated – mock) / (Heat-killed – mock)].

In series [5] the test system is multidrug-resistant S. Typhimurium isolates 0911R and NL08.10 in RAW264.7 cells. The series is described as follows: HCA of intracellular multidrug-resistant isolates in macrophages. In kind it is cell-based, Salmonella enterica serovar Typhimurium. The settings on record: 0911R and NL08.10, gentamicin, 24 h. On the procedure: as §2
The test system of series [6] is intracellular S. Typhimurium in RAW264.7 cells. The series is described as follows: CFU assay of bacterial growth in macrophages. In kind it is cell-based, Salmonella enterica serovar Typhimurium. The settings on record: submicromolar concentrations, with gentamicin 20 mg/L, 24 h. On the procedure:
Overnight cultures of S. Typhimurium were diluted 1:100 in fresh LB broth and incubated for 2 h at 37°C. The bacteria were then collected and suspended in PBS to an OD600 of 0.6. RAW264.7 cells seeded in a 6-well plate were infected with S. Typhimurium at an MOI of 25 for 1 h. After infection, the cells were washed, exposed to 100 mg/L gentamicin for 1 h, and treated with SW14 (0.25 to 1 μM) in combination with 20 mg/L gentamicin for 24 h. Then, the infected cells were washed and lysed with 0.1% Triton X-100 in PBS for 10 min at 37°C to release the intracellular bacteria. The cell lysates were serially diluted in PBS, spread on LB agar plates, and incubated at 37°C for 18 h. The bacterial colonies on the plates were enumerated and expressed as CFU.

The test system of series [7] is intracellular S. Typhimurium in RAW264.7 macrophages. The series can be described thus: microbe, parasite or virus in culture. In kind it is cell-based, Salmonella enterica serovar Typhimurium. The settings on record: for viability at 0.5 µM: TYPHIMURIUM, RAW264.7, read-out: viability of intracellular Salmonella compared to mock-treated cells. How it is done: as §2

Read-outs that look alike come from different tables or passages of the source.

Broadly, the viability is a read-out of living cells in per cent, often relative to untreated cells. For `Clc1ccc2c(c1)C(NCCN1CCNCC1)=Nc1ccccc1O2` [SW14], in series [1], the “ROS level (H2DCFDA fluorescence signal) in infected macrophages” value is “did not observe any significant change”. Moreover, the MIC against S. Typhimurium NL08.10 was greater than 64 µg/mL; with S. Typhimurium SA10, greater than 64 µg/mL; with S. Typhimurium SB10, greater than 64 µg/mL; in series [2] (Salmonella enterica), greater than 64 µg/mL; in [2] (Table S1(B), ATCC 14028) it was greater than 64 µg/mL; in the series with S. Typhimurium 0911R it was greater than 64 µg/mL. The “concentration inhibiting bacterial growth (OD600)” value with S. Typhimurium (Luria-Bertani (LB) medium) and with S. Typhimurium (cell culture medium (DMEM + 10% FBS)) was greater than 64 µM in each case. The “growth of Salmonella in LPM medium” value in the series with S. Typhimurium (acidic low-phosphate, low-magnesium (LPM) medium) was “unable to detect any significant change”. Moreover, in the series with S. Typhimurium (broth), the “concentration inhibiting bacterial growth in broth” value was greater than 64 µM. Besides, the CC50 at 24 h in [3] is 23.5 µM. Besides, the “efflux pump activity in S. Typhimurium” value in series [4] is given as “efflux pump suppressive effect”. The “intracellular replication of MDR S. Typhimurium isolates” value in series [5] is “remained susceptible”. Besides, the “viability of intracellular Salmonella (CFU assay)” value in [6] was “potent suppressive effect”. In addition, the “inhibitory activity of ciprofloxacin and cefixime on intracellular Salmonella in combination with SW14” value in series [7] (0.5 μM SW14, 24 h, equal to the antibiotic at 2-fold concentration) was “enhanced”. Besides, the “selectivity index (SI; CC50/EC50)” value in series [7] (CC50 RAW264.7 / EC50 intracellular Salmonella) is listed as 47. Further, in series [7] (RAW264.7 shATG7 clones vs empty vector, 24 h), the “susceptibility of intracellular Salmonella to SW14 after Atg7 knockdown” value was “more susceptible”. Moreover, the viability at 0.5 µM was determined as 36.8% in [7] (Salmonella enterica, 3-MA 10 mM for 1 h, then SW14 0.5 μM for 24 h, HCA) and 45% in [7] (Salmonella enterica, SW14 0.5 μM alone, 24 h, HCA). The EC50 in series [7] (Salmonella enterica, RFP-expressing S. Typhimurium in RAW264.7, 24 h, with gentamicin 20 mg/L, HCA, read-out: 50% effective concentration (EC50) against intracellular Salmonella) stood at 0.5 µM. In addition, the “suppressive effect on intracellular S. Typhimurium in the presence of ROS scavengers” value in [7] (with NAC 10 mM or GSH 10 mM) is “reversed”.
